In patent publication US8349883B2, “Hydroxamate-based inhibitors of deacetylases B” (Novartis AG, priority 2008, dated 2013):

Legend:
[1] = molecular target: T1, HDAC-1 (Homo sapiens, UniProt Q13547); test: HDAC inhibition assay (purified GST-HDAC protein); type: biochemical
T1 construct: made in house; host or cells: Sf9 or Sf21 insect cells (baculovirus, donor vector pFB-GSTX3)
Text: The baculovirus donor vector pFB-GSTX3 was used to generate a recombinant baculovirus that can express the HDAC polypeptide. Transfer vectors containing the HDAC coding region were transfected into the DH10Bac cell line (GIBCO) and plated on selective agar plates. Colonies without insertion of the fusion sequence into the viral genome (carried by the bacteria) were blue. Single, white colonies were picked and viral DNAs (bacmid) were isolated from the bacteria by standard plasmid purification procedures. Sf9 cells or Sf21 (American Type Culture Collection) cells were then transfected in […] flasks with the viral DNA using Cellfectin reagent.
Virus-containing media was collected from the transfected cell culture and used for infection to increase its titer. Virus-containing media obtained after two rounds of infection was used for large-scale protein expression. For large-scale protein expression 100 cm^2 round tissue culture plates were seeded with 5×10^7 cells/plate and infected with 1 mL of virus-containing media (at an approximately MOI of 5). After 3 days, the cells were scraped off the plate and centrifuged at 500 rpm for 5 minutes. Cell pellets from 10-20, 100 cm^2 plates, were re-suspended in 50 mL of ice-cold lysis buffer (25 mM tris-HCl, pH 7.5, 2 mM EDTA, 1% NP-40, 1 mM DTT, 1 mM P MSF). The cells were stirred on ice for 15 minutes and then centrifuged at 5,000 rpms for 20 minutes.
The centrifuged cell lysate was loaded onto a 2 mL glutathione-sepharose column (Pharmacia) and was washed thrice with 10 mL of 25 mM tris-HCl, pH 7.5, 2 mM EDTA, 1 mM DTT, 200 mM NaCl. The GST-tagged proteins were then eluted by 10 applications (1 mL each) of 25 mM tris-HCl, pH 7.5, 10 mM reduced-glutathione, 100 mM NaCl, 1 mM DTT, 10% glycerol and stored at −70° C.
HDAC assays with purified GST-HDAC protein were carried out in a final volume of 30 μL containing 15 ng of GST-HDAC protein, 20 mM tris-HCl, pH 7.5, 1 mM MnCl2, 10 mM MgCl2, 1 mM DTT, 3 μg/mL poly(Glu,Tyr) 4:1, 1% DMSO, 2.0 μM ATP (γ-[^33P]-ATP 0.1 μCi). The activity was assayed in the presence or absence of inhibitors. The assay was carried out in 96-well plates at ambient temperature for 15 minutes under conditions described below and terminated by the addition of 20 μL of 125 mM EDTA. Subsequently, 40 μL of the reaction mixture were transferred onto EMMOBILON-PVDF membrane (Millipore) previously soaked for 5 minutes with methanol, rinsed with water, then soaked for 5 minutes with 0.5% H3PO4 and mounted on vacuum manifold with disconnected vacuum source. After spotting all samples, a vacuum was connected and each well rinsed with 200 μL 0.5% H3PO4. Membranes were removed and washed four times on a shaker with 1.0% H3PO4, once with ethanol. Membranes were counted after drying at ambient temperature, mounting in Packard TopCount 96-well frame, and addition of 10 μL/well of MICROSCINT™ (Packard). IC50 values were calculated by linear regression analysis of the percentage inhibition of each compound in duplicate, at 4 concentrations (usually 0.01, 0.1, 1 and 10 μM).
• Input: 3×4 μL stopped assay on IMMOBILON membrane, not washed • Background (3 wells): assay with H2O instead of enzyme • Positive control (4 wells): 3% DMSO instead of compound • Bath control (1 well): no reaction mix
IC50 values were calculated by logarithmic regression analysis of the percentage inhibition of each compound at 4 concentrations (usually 3- or 10-fold dilution series starting at 10 μM). In each experiment, the actual inhibition by reference compound was used for normalization of IC50 values to the basis of an average value of the reference inhibitor: Normalized IC50=measured IC50 average ref IC50/measured ref IC50
Example: Reference inhibitor in experiment 0.4 μM, average 0.3 μM, Test compound in experiment 1.0 μM, normalization: 0.3/0.4=0.75 μM
For example, known HDAC inhibitors or a synthetic derivative thereof may be used as reference compounds.

[2] = system: HCT116; test: HCT116 IC50; type: cell-based; conditions: Homo sapiens, HCT-116

T1 sequence (Q13547 whole entry, species assumed): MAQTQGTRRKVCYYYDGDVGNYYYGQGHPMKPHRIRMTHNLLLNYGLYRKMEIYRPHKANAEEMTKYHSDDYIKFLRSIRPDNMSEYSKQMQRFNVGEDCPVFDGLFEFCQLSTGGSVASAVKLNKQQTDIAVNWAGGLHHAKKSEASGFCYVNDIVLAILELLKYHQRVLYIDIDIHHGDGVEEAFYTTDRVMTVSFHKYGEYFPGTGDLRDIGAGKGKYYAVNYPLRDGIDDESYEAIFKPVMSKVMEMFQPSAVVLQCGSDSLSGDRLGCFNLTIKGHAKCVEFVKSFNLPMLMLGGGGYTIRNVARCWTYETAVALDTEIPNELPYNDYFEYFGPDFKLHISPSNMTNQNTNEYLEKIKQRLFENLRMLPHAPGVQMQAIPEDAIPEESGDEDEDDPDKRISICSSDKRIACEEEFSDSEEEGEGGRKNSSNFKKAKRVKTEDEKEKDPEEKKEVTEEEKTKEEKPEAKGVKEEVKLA

IC50 [1] [nM] | IC50 [2] [nM] | Compound
67 | 230 | Cn1nnc(CCN2CCC[C@H]2c2ccc(/C=C/C(=O)NO)cc2)n1 [Compound 81, (E)-N-Hydroxy-3-(4-{(S)-1-[2-(2-methyl-2H-tetrazol-5-yl)-ethyl]-pyrrolidin-2-yl}-phenyl)-acrylamide]
0.9 | 1 | O=C(/C=C/c1ccc(C2CCCN2CCc2cnc3ccccn23)cc1)NO (centres unmarked) [Compound 53, (E)-N-Hydroxy-3-{4-[1-(2-imidazo[1,2-a]pyridin-3-yl-ethyl)-pyrrolidin-2-yl]-phenyl}-acrylamide]
3 | 0.6 | O=C(/C=C/c1ccc([C@@H]2CCCN2CCc2c(C(F)(F)F)nn3ccccc23)cc1)NO [Compound 46, (E)-N-Hydroxy-3-(4-{(S)-1-[2-(2-trifluoromethyl-pyrazolo[1,5-a]pyridin-3-yl)-ethyl]-pyrrolidin-2-yl}-phenyl)-acrylamide]
1.8 | 4 | Cc1nn(C)c(C)c1CCN1CCC[C@H]1c1ccc(/C=C/C(=O)NO)cc1 [Compound 60, (E)-N-Hydroxy-3-(4-{(S)-1-[2-(1,3,5-trimethyl-1H-pyrazol-4-yl)-ethyl]-pyrrolidin-2-yl}-phenyl)-acrylamide]
28 | 61 | Cc1cc(C)n(CCN2CCC[C@H]2c2ccc(/C=C/C(=O)NO)cc2)n1 [Compound 66, (E)-3-(4-{(S)-1-[2-(3,5-Dimethyl-pyrazol-1-yl)-ethyl]-pyrrolidin-2-yl}-phenyl)-N-hydroxy-acrylamide]
6 | 43 | Nc1ccc(-n2cc(CCN3CCC[C@H]3c3ccc(/C=C/C(=O)NO)cc3)nn2)cc1 [Compound 79, (E)-3-[4-((S)-1-{2-[1-(4-Amino-phenyl)-1H-[1,2,3]triazol-4-yl]-ethyl}-pyrrolidin-2-yl)-phenyl]-N-hydroxy-acrylamide]
7 | 10 | CC(C)(C)c1[nH]nnc1CCN1CCC[C@H]1c1ccc(/C=C/C(=O)NO)cc1 [Compound 108, (E)-3-(4-{(S)-1-[2-(5-tert-Butyl-1H-[1,2,3]triazol-4-yl)-ethyl]-pyrrolidin-2-yl}-phenyl)-N-hydroxy-acrylamide]
6 | 10 | O=C(/C=C/c1ccc(C2CCCN2CCn2ccc3ccccc32)cc1)NO (centres unmarked) [Compound 5, (E)-N-Hydroxy-3-{4-[1-(2-indol-1-yl-ethyl)-pyrrolidin-2-yl]-phenyl}-acrylamide]
0.6 | 0.38 | Cc1nn2ccccc2c1CCN1CCC[C@H]1c1ccc(/C=C/C(=O)NO)cc1 [Compound 44, (E)-N-Hydroxy-3-(4-{(S)-1-[2-(2-methyl-pyrazolo[1,5-a]pyridin-3-yl)-ethyl]-pyrrolidin-2-yl}-phenyl)-acrylamide]
170 | 540 | O=C(/C=C/c1ccc([C@@H]2CCCN2CCc2nnnn2-c2ccc([N+](=O)[O-])cc2)cc1)NO [Compound 107, (E)-N-Hydroxy-3-[4-((S)-1-{2-[1-(4-nitro-phenyl)-1H-tetrazol-5-yl]-ethyl}-pyrrolidin-2-yl)-phenyl]-acrylamide]
25 | 170 | Cc1nn(CCN2CCC[C@H]2c2ccc(/C=C/C(=O)NO)cc2)c(C)c1Br [Compound 69, (E)-3-(4-{(S)-1-[2-(4-Bromo-3,5-dimethyl-pyrazol-1-yl)-ethyl]-pyrrolidin-2-yl}-phenyl)-N-hydroxy-acrylamide]
58 | 160 | CC(C)n1nnc(CCN2CCC[C@H]2c2ccc(/C=C/C(=O)NO)cc2)n1 [Compound 101, (E)-N-Hydroxy-3-(4-{(S)-1-[2-(2-isopropyl-2H-tetrazol-5-yl)-ethyl]-pyrrolidin-2-yl}-phenyl)-acrylamide]
55 | 110 | Cc1ccn(CCN2CCC[C@H]2c2ccc(/C=C/C(=O)NO)cc2)n1 [Compound 71, (E)-N-Hydroxy-3-(4-{(S)-1-[2-(3-methyl-pyrazol-1-yl)-ethyl]-pyrrolidin-2-yl}-phenyl)-acrylamide]
